The record followed here is patent US20080255082A1, “Hair and/or Scalp Care Compositions Incorporating Terpenoid Compounds” (priority 2005, published 2008).

pEC50: −log10 of the molar value. Read-outs that look alike come from different tables or passages of the source.

Assay [1] addresses T1, human recombinant CB1 (Homo sapiens, UniProt P21554).
T1 construct: purchased Perkin-Elmer; host or cells: HEK293
Kind of assay: CB1R radioligand binding on membranes from HEK293 cells over-expressing CB1. The procedure:
(§1) Terpenoid compounds of formula (I), (II) or (III) above were evaluated for their ability to activate Cannabinoid Receptor 1 (CB1R) and Cannabinoid Receptor 2 (CB2R). Their ClogP values were also measured.
CB1R experiments were performed using membranes from HEK293 cells over-expressing human recombinant CB1, as described by the manufacturer (Perkin-Elmer) and using [3H]CP-55,490 as the radioligand.
(§2) Data of active compounds are expressed in Ki (mM) and are means ±SEM of n=3 determinations.
(§3) The values that are stated for each of the compounds is an EC50 value. This is defined as the molar concentration of an agonist, which produces 50% of the maximum possible response for that agonist. The values documented are in micromolar units.

The target of assay [2] is T2, human recombinant CB2 (Homo sapiens, UniProt P34972).
T2 construct: purchased Perkin-Elmer; host or cells: HEK293
T2 sequence (P34972 whole entry): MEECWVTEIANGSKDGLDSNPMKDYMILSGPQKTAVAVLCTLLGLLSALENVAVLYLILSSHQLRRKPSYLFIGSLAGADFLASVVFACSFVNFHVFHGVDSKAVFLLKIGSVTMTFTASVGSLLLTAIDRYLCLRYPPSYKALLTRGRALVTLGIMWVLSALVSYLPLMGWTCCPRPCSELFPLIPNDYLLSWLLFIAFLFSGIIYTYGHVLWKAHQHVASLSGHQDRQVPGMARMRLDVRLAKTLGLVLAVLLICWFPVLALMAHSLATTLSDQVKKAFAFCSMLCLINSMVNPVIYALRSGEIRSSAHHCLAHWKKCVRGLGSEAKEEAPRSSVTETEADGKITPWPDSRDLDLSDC
Kind of assay: CB2R radioligand binding on membranes from HEK293 cells over-expressing CB2. The procedure: as §1
CB2R experiments were performed using membranes from HEK293 cells over-expressing human recombinant CB2, as described by the manufacturer (Perkin-Elmer), and using [3H]CP-55,495 as the radioligand.
as §2, §3

Where [3] appears, read: HEK293 membranes, [3H]CP-55,490 radioligand, means of n=3, read-out: CB1R Activity.
Setting [4] is: HEK293 membranes, [3H]CP-55,495 radioligand, means of n=3, dash = greater than 25 micromolar, read-out: CB2R Activity.

T1 sequence (P21554 whole entry): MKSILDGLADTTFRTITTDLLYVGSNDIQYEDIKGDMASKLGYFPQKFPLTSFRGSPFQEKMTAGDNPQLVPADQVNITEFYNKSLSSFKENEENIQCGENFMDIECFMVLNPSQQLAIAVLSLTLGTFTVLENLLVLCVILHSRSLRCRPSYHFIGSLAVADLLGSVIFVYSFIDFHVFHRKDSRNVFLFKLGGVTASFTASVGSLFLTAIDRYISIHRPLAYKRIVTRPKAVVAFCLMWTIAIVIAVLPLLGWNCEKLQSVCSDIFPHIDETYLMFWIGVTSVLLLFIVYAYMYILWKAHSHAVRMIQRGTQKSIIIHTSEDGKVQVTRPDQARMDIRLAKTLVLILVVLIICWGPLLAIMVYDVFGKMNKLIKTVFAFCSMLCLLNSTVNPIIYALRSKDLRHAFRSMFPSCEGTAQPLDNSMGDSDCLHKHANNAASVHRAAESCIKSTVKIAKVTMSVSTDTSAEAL

In the case of `C=C(C)C1Cc2c(cc(O)c3c2OC2C(O)Oc4cc(OC)c(OC)cc4C2C3=O)O1` (centres unmarked) [Example 1, 6-hydroxysumatrol], the pEC50 in assay [1] (setting [3]) is 4.77; in assay [2] (setting [4]), < 4.60.

With `COc1cc(C2Oc3ccc(C4CC(=O)c5c(O)cc(O)cc5O4)cc3OC2CO)ccc1O` (centres unmarked) [Example 3, silandrin], the pEC50 in assay [1] is 4.66; in assay [2] it was < 4.60.

Turning to isophaseollin [Example 2], the “activation of Cannabinoid Receptor 1 (CB1R), in words” value in assay [1] is listed as “can activate”. The results for the pEC50 in assay [1] (setting [3]) and in assay [2] (setting [4]) were 4.81 and 4.65, respectively. Also, the “activation of Cannabinoid Receptor 2 (CB2R), in words” value in assay [2] is “can activate”.
